Consider twelve molecules from patent publication US11753407B2, “Compounds for treating spinal muscular atrophy” (PTC Therapeutics, Inc., priority 2012, dated 2023).

SMILES strings stand for the structures.

Series [1] concerns Smn protein in SMA patient fibroblast cells (GM03813). Put plainly: Smn protein assay in cultured cells (SMN HTRF). The conditions noted are these: SMA patient fibroblast cells, 48 hours; for EC1.5x for Smn protein expression: 7-point concentration curve, SMN HTRF, concentration producing 1.5 times Smn protein vs DMSO vehicle control; for maximum fold (Fold) increase of Smn protein: 7-point concentration data, fold relative to vehicle control. Format: cell-based, human. The essentials: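 Smn protein quantified by HTRF with anti-SMN d2/kryptate pair, 665/620 nm ratio blank-corrected, in RIPA lysates of GM03813 fibroblasts after 48 h compound exposure (7 concentrations, 3.16-fold steps, triplicates). Values: concentration producing 1.5× vehicle Smn level, and maximal fold increase.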
A general note: Time-resolved FRET reads energy transfer from a long-lived donor to a nearby acceptor.

Series [2] concerns SMN2 minigene mRNA (SMN2-A minigene) in HEK293H cells. Put plainly: SMN2 minigene mRNA splicing RT-qPCR assay in cultured cells. In kind it is cell-based, human. The conditions noted are these: Homo sapiens, HEK293-H; concentration increasing full length SMN2 mRNA 1.5-fold relative to vehicle-treated cells; HEK293H cells with SMN2-A minigene, 24 hours, 7-point concentration data; read-out: EC1.5x for production of full length SMN2 mRNA. In outline:
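EC1.5× = concentration raising full-length SMN2 minigene mRNA 1.5-fold over vehicle, from 7-point curves in duplicate. Stably transfected HEK293H cells exposed 24 h at 37 °C; lysates assayed by multiplex RT-qPCR, minigene FL signal normalized to GAPDH via modified ΔΔCt.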
(In general: Quantitative PCR measures a nucleic acid by following its amplification.)

Usually melting point stands for the temperature, or range, at which the solid turns liquid. `CCN1CCN(c2ccc3nc(-c4cc5c(C6CC6)nc(C)cn5n4)cc(=O)n3c2)CC1` [Compound 685, 2-(4-cyclopropyl-6-methylpyrazolo[1,5-a]pyrazin-2-yl)-7-(4-ethylpiperazin-1-yl)-4H-pyrido[1,2-a]pyrimidin-4-one] registered a melting point of 236 to 238 °C. Besides, in series [1], the “EC1.5x for Smn protein expression” value is “** (an EC1.5× between >1 μM and ≤3 μM is indicated by two stars (**))”; the “maximum fold (Fold) increase of Smn protein” value (from here on “maximum fold (Fold) increase”) is “**** (a fold increase between >1.5 and ≤1.65 is indicated by four stars (****))”. In series [2], the EC (1.5-fold increase) fell in the range of 0.1 to 0.3 µM.

As to `Cc1cn2nc(-c3cc(=O)n4cc(N5CCN(CCO)CC5)ccc4n3)cc2c(C2CC2)n1` [Compound 686, 2-(4-cyclopropyl-6-methylpyrazolo[1,5-a]pyrazin-2-yl)-7-[4-(2-hydroxyethyl)piperazin-1-yl]-4H-pyrido[1,2-a]pyrimidin-4-one], the melting point is 239 to 241 °C. Besides, in series [1], the “EC1.5x for Smn protein expression” value is “** (an EC1.5× between >1 μM and ≤3 μM is indicated by two stars (**))”; the “maximum fold (Fold) increase” value was “***** (a fold increase >1.65 is indicated by five stars (*****))”. Further, in series [2], the EC (1.5-fold increase) lay in the range of 0.3 to 1 µM.

Take `CCCN1CCC(c2ccc3nc(-c4cc5c(C)nc(C)cn5n4)cc(=O)n3c2)CC1` [Compound 687, 2-(4,6-dimethylpyrazolo[1,5-a]pyrazin-2-yl)-7-(1-propylpiperidin-4-yl)-4H-pyrido[1,2-a]pyrimidin-4-one]: the melting point lay in the range of 185 to 187 °C. In addition, in series [1], the “EC1.5x for Smn protein expression” value is “**** (an EC1.5x≤0.3 μM is indicated by four stars (****))”; the “maximum fold (Fold) increase” value is “**** (a fold increase between >1.5 and ≤1.65 is indicated by four stars (****))”. In addition, the EC (1.5-fold increase) in series [2] was less than 0.1 µM.

Turning to `Cc1nc2ccc(-c3cc(=O)n4cc(N5CCN(C)CC5)ccc4n3)cc2[nH]1` [Compound 689, 2-(2-methyl-1H-benzimidazol-6-yl)-7-(4-methylpiperazin-1-yl)-4H-pyrido[1,2-a]pyrimidin-4-one], the melting point was 292 to 294 °C. For the same molecule, in series [1], the “EC1.5x for Smn protein expression” value was “*** (an EC1.5× between >0.3 μM and ≤1 μM is indicated by three stars (***))”; the “maximum fold (Fold) increase” value is “**** (a fold increase between >1.5 and ≤1.65 is indicated by four stars (****))”. In addition, in series [2], the EC (1.5-fold increase) fell in the range of 0.1 to 0.3 µM.

The molecule `CCN1CCN(c2ccc3nc(-c4ccc5nc(C)[nH]c5c4)cc(=O)n3c2)CC1` [Compound 690, 7-(4-ethylpiperazin-1-yl)-2-(2-methyl-1H-benzimidazol-6-yl)-4H-pyrido[1,2-a]pyrimidin-4-one] had a melting point of 283 to 285 °C. Moreover, in series [1], the “EC1.5x for Smn protein expression” value was “*** (an EC1.5× between >0.3 μM and ≤1 μM is indicated by three stars (***))”; the “maximum fold (Fold) increase” value was “**** (a fold increase between >1.5 and ≤1.65 is indicated by four stars (****))”. In addition, the EC (1.5-fold increase) in series [2] was less than 0.1 µM.

In turn, `Cc1cn2cc(-c3cc(=O)n4nc(C5CCNCC5)ccc4n3)cc(C)c2n1` [Compound 691, 2-(2,8-dimethylimidazo[1,2-a]pyridin-6-yl)-7-(piperidin-4-yl)-4H-pyrimido[1,2-b]pyridazin-4-one] yielded a melting point of 215 to 217 °C. Moreover, in series [1], the “EC1.5x for Smn protein expression” value is given as “**** (an EC1.5x≤0.3 μM is indicated by four stars (****))” and the “maximum fold (Fold) increase” value is “***** (a fold increase >1.65 is indicated by five stars (*****))”. Besides, the EC (1.5-fold increase) in series [2] was less than 0.1 µM.

On to `Cc1cn2cc(-c3cc(=O)n4nc(C5CCNCC5)ccc4n3)ccc2n1` [Compound 692, 2-(2-methylimidazo[1,2-a]pyridin-6-yl)-7-(piperidin-4-yl)-4H-pyrimido[1,2-b]pyridazin-4-one], for which the melting point fell in the range of 249 to 251 °C. In series [1], the “EC1.5x for Smn protein expression” value is “*** (an EC1.5× between >0.3 μM and ≤1 μM is indicated by three stars (***))”; the “maximum fold (Fold) increase” value is “***** (a fold increase >1.65 is indicated by five stars (*****))”. In addition, the EC (1.5-fold increase) in series [2] was 0.1 to 0.3 µM.

The molecule `CCc1nc(C)cn2nc(-c3cc(=O)n4cc(C5CCN(C6COC(C)(C)OC6)CC5)ccc4n3)cc12` [Compound 693, 7-[1-(2,2-dimethyl-1,3-dioxan-5-yl)piperidin-4-yl]-2-(4-ethyl-6-methylpyrazolo[1,5-a]pyrazin-2-yl)-4H-pyrido[1,2-a]pyrimidin-4-one] yielded a melting point of 236 to 238 °C. Moreover, in series [1], the “EC1.5x for Smn protein expression” value was “** (an EC1.5× between >1 μM and ≤3 μM is indicated by two stars (**))”; the “maximum fold (Fold) increase” value was “**** (a fold increase between >1.5 and ≤1.65 is indicated by four stars (****))”. Moreover, in series [2], the EC (1.5-fold increase) was 1 to 3 µM.

`Cc1cn2cc(-c3cc(=O)n4cc(N5C[C@@H](C)N[C@@H](C)C5)ccc4n3)cc2c(C)n1` [Compound 695, 7-[(3R,5S)-3,5-dimethylpiperazin-1-yl]-2-(1,3-dimethylpyrrolo[1,2-a]pyrazin-7-yl)-4H-pyrido[1,2-a]pyrimidin-4-one] registered a melting point of 254 to 256 °C. In series [1], the “EC1.5x for Smn protein expression” value is “**** (an EC1.5x≤0.3 μM is indicated by four stars (****))” and the “maximum fold (Fold) increase” value was “***** (a fold increase >1.65 is indicated by five stars (*****))”. Further, in series [2], the EC (1.5-fold increase) was less than 0.1 µM.

As to `CCc1cc(-c2cc(=O)n3cc(C4CCNCC4)ccc3n2)cn2cc(C)nc12` [Compound 696, 2-(8-ethyl-2-methylimidazo[1,2-a]pyridin-6-yl)-7-(piperidin-4-yl)-4H-pyrido[1,2-a]pyrimidin-4-one], the melting point is 221 to 224 °C. In addition, in series [1], the “EC1.5x for Smn protein expression” value is reported as “**** (an EC1.5x≤0.3 μM is indicated by four stars (****))” and the “maximum fold (Fold) increase” value is listed as “***** (a fold increase >1.65 is indicated by five stars (*****))”. Further, in series [2], the EC (1.5-fold increase) is less than 0.1 µM.

In turn, `CCc1cc(-c2cc(=O)n3cc(C4CCN(C)CC4)ccc3n2)cn2cc(C)nc12` [Compound 697, 2-(8-ethyl-2-methylimidazo[1,2-a]pyridin-6-yl)-7-(1-methylpiperidin-4-yl)-4H-pyrido[1,2-a]pyrimidin-4-one] registered a melting point of 214 to 218 °C. For the same molecule, in series [1], the “EC1.5x for Smn protein expression” value was “**** (an EC1.5x≤0.3 μM is indicated by four stars (****))” and the “maximum fold (Fold) increase” value is “***** (a fold increase >1.65 is indicated by five stars (*****))”. Besides, the EC (1.5-fold increase) in series [2] is less than 0.1 µM.

Regarding `CCc1cc(-c2cc(=O)n3cc(C4CCN(CC)CC4)ccc3n2)cn2cc(C)nc12` [Compound 698, 2-(8-ethyl-2-methylimidazo[1,2-a]pyridin-6-yl)-7-(1-ethylpiperidin-4-yl)-4H-pyrido[1,2-a]pyrimidin-4-one], the melting point lay within 196 to 200 °C. For the same molecule, in series [1], the “EC1.5x for Smn protein expression” value is on record as “**** (an EC1.5x≤0.3 μM is indicated by four stars (****))” and the “maximum fold (Fold) increase” value is “***** (a fold increase >1.65 is indicated by five stars (*****))”. Besides, the EC (1.5-fold increase) in series [2] is less than 0.1 µM.
